Measurements as given in patent US11464749B2, “Bismuth-thiol compositions and methods of use” (Microbion Corporation, priority 2018, dated 2022).
≈ marks a conversion by molar mass, not a printed value. Read-outs that look alike come from different tables or passages of the source.

Columns and labels:
[1] = tested on: vancomycin-intermediate Staphylococcus aureus (VISA); test: Broth microdilution MIC (Example 12)
[2] = Particle size distribution of BisEDT samples vs processing conditions (Table 111); format: physicochemical; details: BisEDT sample
Description: It was observed that careful control of the reaction temperature and the rate of 1,2 ethanedithiol addition had pronounced impact on the BisEDT particle size distribution.
To a 1-L jacketed reactor was charged USP water (480 mL, 48 vol), followed by 70% HNO3 (34 mL, 3.4 vol). A solution of bismuth subnitrate (10 g, 6.84 mmols) in water (43 mL, 4.3 vol) and 70% HNO3 (14 mL, 1.4 vol) was added at 20° C. The reaction mixture was cooled to 15° C. for addition of 95% Ethanol. The 95% ethanol (180 mL, 18 vol) was then added slowly. (Ethanol addition is exothermic, temperature reached 22° C.). The temperature was then adjusted back to 20° C. […] The reaction was stirred at 20° C. overnight. The reaction mixture was filtered through polypropylene cloth and washed with 95% ethanol (45 mL, 4.5 vol). The wet cake was charged back to the reactor and slurried in 95% ethanol (380 mL, 38 vol) for two hours at 20° C. The suspension was then filtered (same cloth) and washed with 95% ethanol (30 mL, 3 vol). The wet cake was again slurried in 95% EtOH (170 mL, 17 vol) at 20° C., filtered (same cloth), and washed with 95% ethanol (30 mL, 3 vol). The wet cake was then slurried in acetone (170 mL, 17 vol) at 20° C. overnight, followed by filtration (same cloth) and acetone wash (20 mL, 2 vol). The acetone (170 ml, 17 vol) treatment was repeated on the solids and stirred for 2 hours. The suspension was filtered (same cloth) and washed with acetone (30 mL, 3 vol) and died at 45° C. and dried at 45° C. (18 hours) to provide canary yellow solid (10.81 g 91.0%).
Representative synthesis of BisEDT at 15° C. with 1 hour addition of thiol via syringe pump, and polypropylene cloth for filtration: The synthesis BisEDT was performed on 10-g scale, temperature profile was studied with data logger. Ethane dithiol was added at 15° C. over 1 hour via syringe pump and the filtration was performed using PP filter cloth. To a 1-L jacketed reactor was charged USP water (480 mL, 48 vol) and cooled to 15° C., followed by 70% HNO3 (34 mL, 3.4 vol). A solution of bismuth subnitrate (10 g, […]) in water (43 mL, 4.3 vol) and 70% HNO3 (14 mL, 1.4 vol) was added at the same temperature. The 95% ethanol (180 mL, 18 vol) was then added slowly. […] It was then allowed to cool to 15° C. This was followed by dropwise addition of 1,2 ethanedithiol (4.3 mL, […] in 95% ethanol in 94 mL, 9.4 vol) over an hour with the batch temperature at 15° C. The reaction was allowed to stir at 15° C. overnight. The reaction mixture was filtered through polypropylene cloth and washed with 95% ethanol (45 mL, 4.5 vol). The wet cake was charged back to the reactor and slurried in 95% ethanol (380 mL, 38 vol) for two hours at 20° C. The suspension was then filtered (same cloth) and washed with 95% ethanol (30 mL, 3 vol). The wet cake was again slurried in 95% EtOH (170 mL, 17 vol) at 20° C., filtered (same cloth), and washed with 95% ethanol (30 mL, 3 vol). The wet cake was then slurried in acetone (170 mL, 17 vol) at 20° C. overnight, followed by filtration (same cloth) and acetone wash (20 mL, 2 vol). The acetone (170 ml, 17 vol) treatment was repeated on the solids and stirred for 2 hours. The suspension was filtered (same cloth) and washed with acetone (30 mL, 3 vol) and died at 45° C. and dried at 45° C. (18 hours) to provide canary yellow solid (10.43 g 87.8%).

| SMILES | D (10) [2] [μm] | D (50) [2] [μm] | D (90) [2] [μm] | D [4,3] [2] [μm] | other results |
| --- | --- | --- | --- | --- | --- |
| CCC[C@@H]1C[C@@H](C(=O)N[C@@H]([C@H]2O[C@H](SC)[C@H](O)[C@@H](O)[C@H]2O)[C@H](C)Cl)N(C)C1 [CLI] | – | – | – | – | MIC ([1]; S. aureus NRS 1 (hVISA)): >8 µg/mL; MIC ([1]; S. aureus NRS 2): >8 µg/mL; MIC ([1]; S. aureus NRS 3): >8 µg/mL; MIC ([1]; S. aureus NRS 4): >8 µg/mL; MIC ([1]; S. aureus NRS 13): 0.06 µg/mL (≈ 0.141 µM); MIC ([1]; S. aureus NRS 18): >8 µg/mL; MIC ([1]; S. aureus NRS 22): >8 µg/mL; MIC ([1]; S. aureus NRS 24 (hVISA)): >8 µg/mL; MIC ([1]; S. aureus NRS 27): >8 µg/mL |
| C1C[S][Bi]([S]CC[S][Bi]2[S]CC[S]2)[S]1 [Sample 4] | 0.44 | 1.48 | 3.1 | 1.7 | – |
| C1C[S][Bi]([S]CC[S][Bi]2[S]CC[S]2)[S]1 [Sample 9] | 0.67 | 1.0 | 1.9 | 1.1 | – |
| C1C[S][Bi]([S]CC[S][Bi]2[S]CC[S]2)[S]1 [Sample 11] | 0.38 | 1.2 | 2.4 | 1.4 | – |
| C1C[S][Bi]([S]CC[S][Bi]2[S]CC[S]2)[S]1 [Sample 10] | 0.36 | 0.88 | 1.7 | 0.97 | – |
| C1C[S][Bi]([S]CC[S][Bi]2[S]CC[S]2)[S]1 [Sample 13] | 0.36 | 0.98 | 2.1 | 1.2 | – |
| CC(=O)NC[C@H]1CN(c2ccc(N3CCOCC3)c(F)c2)C(=O)O1 [linezolid, reference compound] | – | – | – | – | MIC ([1]; Staphylococcus aureus, VISA, read-out: MIC values): ≤ 4 µg/mL |
| C1C[S][Bi]([S]CC[S][Bi]2[S]CC[S]2)[S]1 [Sample 7] | 0.39 | 1.3 | 1.6 | 1.4 | – |
| C1C[S][Bi]([S]CC[S][Bi]2[S]CC[S]2)[S]1 [Sample 12] | 0.37 | 1.2 | 2.4 | 1.3 | – |
| C1C[S][Bi]([S]CC[S][Bi]2[S]CC[S]2)[S]1 [Sample 15] | 0.32 | 0.72 | 1.6 | 0.86 | – |
| CCCCCCCCCC(=O)NC(Cc1c[nH]c2ccccc12)C(=O)NC(CC(N)=O)C(=O)NC(CC(=O)O)C(=O)NC1C(=O)NCC(=O)NC(CCCN)C(=O)NC(CC(=O)O)C(=O)NC(C)C(=O)NC(CC(=O)O)C(=O)NCC(=O)NC(CO)C(=O)NC(C(C)CC(=O)O)C(=O)NC(CC(=O)c2ccccc2N)C(=O)OC1C (stereo not shown) [DAP] | – | – | – | – | MIC ([1]; S. aureus NRS 1 (hVISA)): 1 µg/mL (≈ 0.617 µM); MIC ([1]; S. aureus NRS 2): 0.25 µg/mL (≈ 0.154 µM); MIC ([1]; S. aureus NRS 3): 1 µg/mL (≈ 0.617 µM); MIC ([1]; S. aureus NRS 4): 0.5 µg/mL (≈ 0.309 µM); MIC ([1]; S. aureus NRS 13): 2 µg/mL (≈ 1.23 µM); MIC ([1]; S. aureus NRS 18): 0.5 µg/mL (≈ 0.309 µM); MIC ([1]; S. aureus NRS 22): 2 µg/mL (≈ 1.23 µM); MIC ([1]; S. aureus NRS 24 (hVISA)): 0.5 µg/mL (≈ 0.309 µM); MIC ([1]; S. aureus NRS 27): 0.25 µg/mL (≈ 0.154 µM) |
| C1C[S][Bi]([S]CC[S][Bi]2[S]CC[S]2)[S]1 [Sample 8] | 0.36 | 1.0 | 1.8 | 1.0 | – |
| C1C[S][Bi]([S]CC[S][Bi]2[S]CC[S]2)[S]1 [Sample 6] | 0.34 | 0.87 | 1.8 | 0.98 | – |
| C1C[S][Bi]([S]CC[S][Bi]2[S]CC[S]2)[S]1 [Sample 14] | 0.36 | 1.0 | 2.1 | 1.2 | – |
| CC(=O)NC[C@H]1CN(c2ccc(N3CCOCC3)c(F)c2)C(=O)O1 [LZD] | – | – | – | – | MIC ([1]; S. aureus NRS 1 (hVISA)): 1 µg/mL (≈ 2.96 µM); MIC ([1]; S. aureus NRS 2): 4 µg/mL (≈ 11.9 µM); MIC ([1]; S. aureus NRS 3): 1 µg/mL (≈ 2.96 µM); MIC ([1]; S. aureus NRS 4): 1 µg/mL (≈ 2.96 µM); MIC ([1]; S. aureus NRS 13): 2 µg/mL (≈ 5.93 µM); MIC ([1]; S. aureus NRS 18): 1 µg/mL (≈ 2.96 µM); MIC ([1]; S. aureus NRS 22): 1 µg/mL (≈ 2.96 µM); MIC ([1]; S. aureus NRS 24 (hVISA)): 2 µg/mL (≈ 5.93 µM); MIC ([1]; S. aureus NRS 27): 2 µg/mL (≈ 5.93 µM) |
| C1C[S][Bi]([S]CC[S][Bi]2[S]CC[S]2)[S]1 [Sample 5] | 0.33 | 0.72 | 1.6 | 0.86 | – |
| C1C[S][Bi]([S]CC[S][Bi]2[S]CC[S]2)[S]1 [Sample 2] | 0.58 | 1.7 | 3.9 | 2.0 | – |
| CN[C@H](CC(C)C)C(=O)N[C@H]1C(=O)N[C@@H](CC(N)=O)C(=O)N[C@H]2C(=O)N[C@H]3C(=O)N[C@H](C(=O)N[C@H](C(=O)O)c4cc(O)cc(O)c4-c4cc3ccc4O)[C@H](O)c3ccc(c(Cl)c3)Oc3cc2cc(c3O[C@@H]2O[C@H](CO)[C@@H](O)[C@H](O)[C@H]2O[C@H]2C[C@](C)(N)[C@H](O)[C@H](C)O2)Oc2ccc(cc2Cl)[C@H]1O [VAN] | – | – | – | – | MIC ([1]; S. aureus NRS 1 (hVISA)): 4 µg/mL (≈ 2.76 µM); MIC ([1]; S. aureus NRS 2): 0.5 µg/mL (≈ 0.345 µM); MIC ([1]; S. aureus NRS 3): 8 µg/mL (≈ 5.52 µM); MIC ([1]; S. aureus NRS 4): 4 µg/mL (≈ 2.76 µM); MIC ([1]; S. aureus NRS 13): 2 µg/mL (≈ 1.38 µM); MIC ([1]; S. aureus NRS 18): 4 µg/mL (≈ 2.76 µM); MIC ([1]; S. aureus NRS 22): 4 µg/mL (≈ 2.76 µM); MIC ([1]; S. aureus NRS 24 (hVISA)): 2 µg/mL (≈ 1.38 µM); MIC ([1]; S. aureus NRS 27): 2 µg/mL (≈ 1.38 µM) |
| C1C[S][Bi]([S]CC[S][Bi]2[S]CC[S]2)[S]1.SCCS [Sample 3] | 0.59 | 1.9 | 4.5 | 2.3 | – |
| C1C[S][Bi]([S]CC[S][Bi]2[S]CC[S]2)[S]1.SCCS [Sample 1] | 0.80 | 2.4 | 5.9 | 2.9 | – |
